Structures can show the parent of a compound that is named as a salt. Where two headings read alike, the source gives them in different places.
How the values were obtained:
[1] = tested on: MX-1, DLD-1 and LNCap cells; experiment: Cytotoxicity/growth inhibition assay, cell line not specified for the statement
From the text: The human cancer cell lines DLD-1 (colorectal adenocarcinoma), LNCap (prostate carcinoma), and OVCAR-3 (ovarian carcinoma) were obtained from the American Type Culture Collection, Manassas, Va., U.S.A., and HL-60 (promyeloid myelocytic leukemia), MX-1 (breast carcinoma), P388, and P388ADR from the National Cancer Institute, Bethesda, Md., U.S.A. Carboplatin, doxorubicin, and melphalan were obtained from Sigma-Aldrich Chemical Company, St. Louis, Mo., U.S.A. The CellTiter-Glo assay kit was obtained from Promega Corporation, Madison, Wis., U.S.A., and the Cellular DNA Cytometric Analysis Reagent Kit from Roche Diagnostics Corporation, Indianapolis, Ind., U.S.A. Lambda DNA was obtained from New England Biolabs, Beverly, Mass., U.S.A., and SYBR-Gold from Molecular Probes, Inc., Eugene, Oreg., U.S.A. The DNeasy Tissue Kit was obtained from Qiagen Inc., Valencia, Calif., U.S.A., and AmpliTaq Gold DNA polymerase and PCR reagents from Applied Biosystems, Foster City, Calif., U.S.A. All products were used in accordance with manufacturer's directions. […] The extent of cell growth was expressed as a percentage of the signal from the solvent control wells.
Log-phase cells were trypsinized, collected by centrifugation, and resuspended in a small volume of fresh medium, and the density of viable cells was determined following Trypan Blue staining. […]

MX-1 (breast carcinoma) = experiment: Cytotoxicity/growth inhibition assay, MX-1; type: cell-based, human; conditions: Homo sapiens, MX1, 72 h, read-out: IC50 (MX-1)
Outline: (§1)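 Test compounds in DMSO (0.1–200 μM; final DMSO 0.5%) added to freshly diluted cells (3×10^3 cells/mL MX-1 and DLD-1, 6×10^3 cells/mL LNCap), triplicate wells. Cultured ~three doubling times (3 days MX-1, 4 days DLD-1/LNCap). CellTiter-Glo luminescence, 15 min room temperature; growth expressed as % of DMSO solvent control.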

[2] = tested on: P388 murine leukemia cell line; experiment: Cross-resistance assay; type: cell-based; conditions: P388 vs doxorubicin-resistant derivative; cross-resistant if resistance ratio approximately 2 or higher
From the text: (§2) The human cancer cell lines DLD-1 (colorectal adenocarcinoma), LNCap (prostate carcinoma), and OVCAR-3 (ovarian carcinoma) were obtained from the American Type Culture Collection, Manassas, Va., U.S.A., and HL-60 (promyeloid myelocytic leukemia), MX-1 (breast carcinoma), P388, and P388ADR from the National Cancer Institute, Bethesda, Md., U.S.A. Carboplatin, doxorubicin, and melphalan were obtained from Sigma-Aldrich Chemical Company, St. Louis, Mo., U.S.A. The CellTiter-Glo assay kit was obtained from Promega Corporation, Madison, Wis., U.S.A., and the Cellular DNA Cytometric Analysis Reagent Kit from Roche Diagnostics Corporation, Indianapolis, Ind., U.S.A. Lambda DNA was obtained from New England Biolabs, Beverly, Mass., U.S.A., and SYBR-Gold from Molecular Probes, Inc., Eugene, Oreg., U.S.A. The DNeasy Tissue Kit was obtained from Qiagen Inc., Valencia, Calif., U.S.A., and AmpliTaq Gold DNA polymerase and PCR reagents from Applied Biosystems, Foster City, Calif., U.S.A. All products were used in accordance with manufacturer's directions. All assays were conducted in triplicate wells, with dimethyl sulfoxide (DMSO) solvent control. The extent of cell growth was expressed as a percentage of the signal from the solvent control wells.

[3] = tested on: MX-1 (human breast cancer) tumor; experiment: MX-1 xenograft assay, intraperitoneal administration; type: in vivo, athymic nu/nu mice
Description: Female athymic nu/nu mice (Harlan, Indianapolis, Ind., U.S.A. or similar vendor), 6-8 weeks old (approximately 20 g), were implanted in the mammary fat pad of the right fore flank with 20-30 mg pieces of MX-1 (human breast cancer) tumor harvested from similar mice that had previously been implanted with the MX-1 tumor. Approximately 7-10 days after tumor transplantation, when the tumor weight was approximately 50-200 mg, the mice were assigned to treatment groups. […] All compounds were active in this assay, with tumor growth inhibition compared to vehicle between 5% (compound 171A) and 99% (compound 13A), with most compounds causing at least 30% tumor growth inhibition. […] Compound 13A was tested at 25, 50, or 100 mg/Kg for 5 or 9 days, causing tumor inhibition between 19% (25 mg/Kg for 5 days) and 99% (100 mg/Kg for 9 days). Compound 70A was tested at 50, 100, and 150 mg/Kg for 5 or 12 days, causing tumor inhibition between 16% (50 mg/Kg for 5 days) and 95% (150 mg/Kg for 12 days).

DLD-1 cells = experiment: Cell cycle analysis; type: cell-based, human; conditions: approximately IC75-85, one and two days, propidium iodide FACS
OVCAR-3 cell line = experiment: Synergism assay; type: cell-based, human
From the text: as §2

[4] = tested on: DLD-1 (colorectal adenocarcinoma); experiment: Cytotoxicity/growth inhibition assay, DLD-1; type: cell-based, human; conditions: Homo sapiens, DLD-1, 96 h, read-out: IC50 (DLD-1)
Outline: as §1

[5] = tested on: M7609 engineered to have high, medium, and low levels of GST P1-1; conditions: murine xenografts; cited from earlier work
[6] = tested on: ovarian, breast, non-small cell lung, and colorectal cancers; conditions: cited from earlier work
Lambda DNA = experiment: DNA damage assay; type: biochemical; conditions: 100 μM and 300 μM, room temperature, one day, PCR amplification
[7] = tested on: in vitro cell culture and tumor biopsies; conditions: cited from earlier work
[8] = tested on: MCF-7 human breast carcinoma cell line selected for resistance to cyclophosphamide; conditions: overexpresses GST P1-1; cited from earlier work
[9] = tested on: M6709 human colon carcinoma cell line selected for resistance to doxorubicin; conditions: overexpresses GST P1-1; cited from earlier work

## O=P(OCCSCCOP(=O)(N(CCCl)CCCl)N(CCCl)CCCl)(N(CCCl)CCCl)N(CCCl)CCCl [Compound 1CC, di[2-[[bis[bis(2-chloroethyl)amino]phosphinyl]oxy]ethyl]sulfide]
[1]
  activity in cytotoxicity/growth inhibition assay: active

## O=P(OCCS(=O)(=O)Cc1ccccc1)(N(CCCl)CCCl)N(CCCl)CCCl [Compound 128A, α-[[2-[[bis[bis(2-chloroethyl)amino]phosphinyl]oxy]ethyl]sulfonyl]toluene]
MX-1 (breast carcinoma)
  IC50: 4.5 µM
[2]
  cross-resistance with doxorubicin: not cross-resistant
[3]; 100 mg/Kg intraperitoneal once/day for 5, 9, or 14 days
  activity in MX-1 xenograft assay: active
[3]; intraperitoneal, range of doses and treatment times
  dose dependence of tumor inhibition: dose-dependent tumor inhibition
DLD-1 cells
  cell cycle effect (G2/M cycle block): induced a G2/M cycle block
OVCAR-3 cell line
  synergism with carboplatin: synergistic
[4]
  IC50: 3.2 µM

## N[C@@H](CCC(=O)N[C@@H](CS(=O)(=O)CCOP(=O)(N(CCCl)CCCl)N(CCCl)CCCl)C(=O)N[C@@H](C(=O)O)c1ccccc1)C(=O)O [canfosfamide hydrochloride]
[5]
  potency versus level of GST P1-1: positively correlated with the level of GST P1-1
[6]; colorectal and breast cancer
  clinical activity: single agent antitumor activity
[6]; patients treated
  incidence of clinically significant hematological toxicity: very low incidence
[6]; patients with non-small cell lung cancer and ovarian cancer
  clinical activity: significant single agent antitumor activity and improvement in survival

## N[C@@H](CCC(=O)N[C@@H](CS(=O)(=O)CCOP(=O)(N(CCCl)CCCl)N(CCCl)CCCl)C(=O)N[C@@H](C(=O)O)c1ccccc1)C(=O)O [canfosfamide, L-γ-glutamyl-3-[[2-[[bis[bis(2-chloroethyl)amino]phosphinyl]oxy]ethyl]sulfonyl]-L-alanyl-2phenyl-(2R)-glycine]
Lambda DNA
  DNA damage activity: only marginal DNA damage activity
[7]
  cross-resistance to platinum, paclitaxel, doxorubicin and gemcitabine: non-cross-resistant
DLD-1 cells
  cell cycle effect (G2/M cycle block): induced a G2/M cycle block
OVCAR-3 cell line
  synergism with carboplatin: synergistic
[8]
  potency in resistant line over parental cell line: more potent
[9]
  potency in resistant line over parental cell line: more potent

From US8093231B2, “Sulfonylethyl phosphorodiamidates” (Telik, Inc., priority 2004, dated 2012)
